Measurements as given in patent US20260200926A1, “TREM2 MODULATORS” (Muna Therapeutics ApS, priority 2022, published 2026).
pEC50: −log10 of the molar value. Where two headings read alike, the source gives them in different places.

Molecular target: T1, Human TREM2 (Homo sapiens, UniProt Q9NZC2)
T1 construct: expressed in transfected cells
Test: Human TREM2 activity: cellular phosphorylation of Syk (AlphaLISA SureFire Ultra p-SYK) in HEK293/DAP12+TREM2 stable cell line
Assay type: cell-based
Summary of the method: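 HEK293 cells stably co-expressing human TREM2 and DAP12 were seeded at 10,000 cells/well and used 20–24 h later. Compounds were tested at 8 concentrations (top 100 μM, 1:6 steps, 0.5% DMSO) for 30 min at 37 °C. Syk phosphorylation at Tyr525/526 was read in lysates by AlphaLISA SureFire Ultra.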

[1] = HEK293, maximal response relative to reference agonist example 1B (remaining examples), read-out: Emax
[2] = phospho-Syk AlphaLISA signal, HEK293/DAP12+TREM2 cells, concentration giving 50% of maximal response, read-out: EC50
[3] = maximal response relative to reference agonist example 1B (remaining examples)

T1 sequence (Q9NZC2 19-230): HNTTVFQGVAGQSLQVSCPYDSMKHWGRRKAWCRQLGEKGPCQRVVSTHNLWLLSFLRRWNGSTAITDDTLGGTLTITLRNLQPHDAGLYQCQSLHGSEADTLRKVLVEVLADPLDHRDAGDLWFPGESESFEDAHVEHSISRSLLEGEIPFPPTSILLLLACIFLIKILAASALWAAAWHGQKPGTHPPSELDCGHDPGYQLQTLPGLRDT
T1 sequence (O43914 22-113 partner): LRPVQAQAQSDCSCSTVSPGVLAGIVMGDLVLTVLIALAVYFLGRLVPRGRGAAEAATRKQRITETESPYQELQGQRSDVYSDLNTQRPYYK

Row | SMILES | Emax [1] [%] | pEC50 [2] | Emax (HEK293, maximal response relative to reference agonist human TREM2 MAB1828 (examples 1, 1A and 1B), read-out: Emax) [%] | Emax [3] | pEC50
1 | Cc1nc2c(-c3ccc(C(F)(F)F)cc3C#N)nc(N3C[C@@H](c4cnn(C5CC5)c4)O[C@@H](C)C3)cc2c(=O)n1C (single isomer, unassigned) [Example 202A] | < 75 | < 6.00 |  |  | 
2 | Cc1nc2c(-c3ccc(C(F)(F)F)cc3C#N)nc(N3C[C@@H](C)O[C@@H](c4cnn(C5CC5)c4)C3)cc2c(=O)n1C (single isomer, unassigned) [Example 202B] | < 75 | < 6.00 |  |  | 
3 | Cc1nc2c(-c3ccc(Cl)cc3F)nc(N3CCO[C@H](c4cnn(C)c4)C3)nc2c(=O)[nH]1 (single isomer, unassigned) [Example 203A] | < 75 | 6.00 to 7.00 |  |  | 
4 | Cc1nc2c(-c3ccc(Cl)cc3F)nc(N3CCO[C@@H](c4cnn(C)c4)C3)nc2c(=O)[nH]1 (single isomer, unassigned) [Example 203B] | < 75 | 6.00 to 7.00 |  |  | 
5 | Cc1nc2c(-c3ccc(Cl)cc3F)nc(N3CCOC(c4cnn(C)c4)C3)nc2c(=O)n1C (stereo not shown) [Example 1, 8-(4-chloro-2-fluorophenyl)-2,3-dimethyl-6-(2-(1-methyl-1H-pyrazol-4-yl)morpholino)pyrimido[5,4-d]pyrimidin-4 (3H)-one] |  | 7.00 to 8.00 | 75 to 110 |  | 
6 | Cc1nc2c(-c3ccc(Cl)cc3F)nc(N3CCOC(c4cnn(C5CC5)c4)C3)nc2c(=O)n1C (stereo not shown) [Example 2, 8-(4-chloro-2-fluorophenyl)-6-(2-(1-cyclopropyl-1H-pyrazol-4-yl)morpholino)-2,3-dimethylpyrimido[5,4-d]pyrimidin-4 (3H)-one] | 75 to 110 | 8.00 to 9.00 |  |  | 
7 | Cc1cc(C2CN(c3nc(-c4ccc(Cl)cc4F)c4nc(C)n(C)c(=O)c4n3)CCO2)ccn1 (stereo not shown) [Example 3, 8-(4-chloro-2-fluorophenyl)-2,3-dimethyl-6-(2-(2-methylpyridin-4-yl)morpholino)pyrimido[5,4-d]pyrimidin-4 (3H)-one] | 75 to 110 | 8.00 to 9.00 |  |  | 
8 | Cc1nc2c(-c3ccc(C(F)(F)F)nc3)nc(N3CCOC(c4cnn(C)c4)C3)nc2c(=O)n1C (stereo not shown) [Example 4, 2,3-dimethyl-6-(2-(1-methyl-1H-pyrazol-4-yl)morpholino)-8-(6-(trifluoromethyl)pyridin-3-yl)pyrimido[5,4-d]pyrimidin-4(3H)-one] | 75 to 110 | 6.00 to 7.00 |  |  | 
9 | Cc1nc2c(-c3ccc(F)cc3F)nc(N3CCOC(c4cnn(C)c4)C3)nc2c(=O)n1C (stereo not shown) [Example 5, 8-(2,4-difluorophenyl)-2,3-dimethyl-6-(2-(1-methyl-1H-pyrazol-4-yl)morpholino)pyrimido[5,4-d]pyrimidin-4(3H)-one] | < 75 | 7.00 to 8.00 |  |  | 
10 | Cc1nc2c(-c3ccc(F)c(F)c3F)nc(N3CCOC(c4cnn(C)c4)C3)nc2c(=O)n1C (stereo not shown) [Example 6, 2,3-dimethyl-6-(2-(1-methyl-1H-pyrazol-4-yl)morpholino)-8-(2,3,4-trifluorophenyl)pyrimido[5,4-d]pyrimidin-4(3H)-one] | 75 to 110 | < 6.00 |  |  | 
11 | Cc1nc2c(-c3cc(F)c(F)cc3F)nc(N3CCOC(c4cnn(C)c4)C3)nc2c(=O)n1C (stereo not shown) [Example 7, 2,3-dimethyl-6-(2-(1-methyl-1H-pyrazol-4-yl)morpholino)-8-(2,4,5-trifluorophenyl)pyrimido[5,4-d]pyrimidin-4(3H)-one] | < 75 | 6.00 to 7.00 |  |  | 
12 | Cc1nc2c(-c3cc(F)c(F)c(F)c3)nc(N3CCOC(c4cnn(C)c4)C3)nc2c(=O)n1C (stereo not shown) [Example 8, 2,3-dimethyl-6-(2-(1-methyl-1H-pyrazol-4-yl)morpholino)-8-(3,4,5-trifluorophenyl)pyrimido[5,4-d]pyrimidin-4(3H)-one] | < 75 | 6.00 to 7.00 |  |  | 
13 | Cc1nc2c(-c3ccc(F)c(F)c3)nc(N3CCOC(c4cnn(C)c4)C3)nc2c(=O)n1C (stereo not shown) [Example 9, 8-(3,4-difluorophenyl)-2,3-dimethyl-6-(2-(1-methyl-1H-pyrazol-4-yl)morpholino)pyrimido[5,4-d]pyrimidin-4(3H)-one] | < 75 | 6.00 to 7.00 |  |  | 
14 | Cc1nc2c(-c3ccc(C(F)(F)F)cc3F)nc(N3CCOC(c4cnn(C)c4)C3)nc2c(=O)n1C (stereo not shown) [Example 10, 8-(2-fluoro-4-(trifluoromethyl)phenyl)-2,3-dimethyl-6-(2-(1-methyl-1H-pyrazol-4-yl)morpholino)pyrimido[5,4-d]pyrimidin-4(3H)-one] | 75 to 110 | 6.00 to 7.00 |  |  | 
15 | Cc1nc2c(C3CCC(F)(F)CC3)nc(N3CCOC(c4cnn(C)c4)C3)nc2c(=O)n1C (stereo not shown) [Example 11, 8-(4,4-difluorocyclohexyl)-2,3-dimethyl-6-(2-(1-methyl-1H-pyrazol-4-yl)morpholino)pyrimido[5,4-d]pyrimidin-4 (3H)-one] | 75 to 110 | 6.00 to 7.00 |  |  | 
16 | Cc1nc2c(nc(N3CCOC(c4cnn(C)c4)C3)nc2[C@H]2CC[C@@H](C)CC2)c(=O)n1C (stereo partly shown) [Example 12a, 2,3-dimethyl-6-(2-(1-methyl-1H-pyrazol-4-yl)morpholino)-8-((1s,4s)-4-methylcyclohexyl)pyrimido[5,4-d]pyrimidin-4 (3H)-one] | 75 to 110 | < 6.00 |  |  | 
17 | Cc1nc2c(C3CCC(C)CC3)nc(N3CCOC(c4cnn(C)c4)C3)nc2c(=O)n1C (stereo not shown) [Example 12b, 2,3-dimethyl-6-(2-(1-methyl-1H-pyrazol-4-yl)morpholino)-8-((1r,4r)-4-methylcyclohexyl)pyrimido[5,4-d]pyrimidin-4 (3H)-one] |  | 6.00 to 7.00 |  | ++ (75-110%) | 
18 | Cc1nc2c(-c3ccc(Cl)cc3F)nc(N3CCC(F)(F)C(c4cnn(C)c4)C3)nc2c(=O)n1C (stereo not shown) [Example 13, 8-(4-chloro-2-fluorophenyl)-6-(4,4-difluoro-3-(1-methyl-1H-pyrazol-4-yl)piperidin-1-yl)-2,3-dimethylpyrimido[5,4-d]pyrimidin-4 (3H)-one] | 75 to 110 | 8.00 to 9.00 |  |  | 
19 | Cc1nc2c(-c3ccc(Cl)cc3F)nc(N3CC(COc4cnn(C)c4)C3)nc2c(=O)n1C [Example 15, 8-(4-chloro-2-fluorophenyl)-2,3-dimethyl-6-(3-(((1-methyl-1H-pyrazol-4-yl)oxy)methyl)azetidin-1-yl)pyrimido[5,4-d]pyrimidin-4 (3H)-one] | < 75 | < 6.00 |  |  | 
20 | Cc1nc2c(-c3ccc(Cl)cc3F)nc(N3CC(Oc4cnn(C)c4)C3)nc2c(=O)n1C [Example 16, 8-(4-chloro-2-fluorophenyl)-2,3-dimethyl-6-(3-((1-methyl-1H-pyrazol-4-yl)oxy)azetidin-1-yl)pyrimido[5,4-d]pyrimidin-4 (3H)-one] | 75 to 110 | 6.00 to 7.00 |  |  | 
21 | Cc1nc2c(-c3ccc(Cl)cc3F)nc(C3CCOC(c4cnn(C)c4)C3)nc2c(=O)n1C (stereo not shown) [Example 17, 8-(4-chloro-2-fluorophenyl)-2,3-dimethyl-6-(2-(1-methyl-1H-pyrazol-4-yl)tetrahydro-2H-pyran-4-yl)pyrimido[5,4-d]pyrimidin-4 (3H)-one] | 75 to 110 | 6.00 to 7.00 |  |  | 
22 | Cc1nc2c(-c3ccc(Cl)cc3F)nc(N3CC(OCc4cnn(C)c4)C3)nc2c(=O)n1C [Example 18, 8-(4-chloro-2-fluorophenyl)-2,3-dimethyl-6-(3-((1-methyl-1H-pyrazol-4-yl)methoxy)azetidin-1-yl)pyrimido[5,4-d]pyrimidin-4 (3H)-one] | < 75 | < 6.00 |  |  | 
23 | Cc1nc2c(-c3ccc(Cl)cc3F)nc(N3CCN(C)C(c4cnn(C)c4)C3)nc2c(=O)n1C (stereo not shown) [Example 29, 8-(4-chloro-2-fluorophenyl)-2,3-dimethyl-6-(4-methyl-3-(1-methyl-1H-pyrazol-4-yl)piperazin-1-yl)pyrimido[5,4-d]pyrimidin-4(3H)-one] | < 75 | 6.00 to 7.00 |  |  | 
24 | CCN1CCN(c2nc(-c3ccc(Cl)cc3F)c3nc(C)n(C)c(=O)c3n2)CC1c1cnn(C)c1 (stereo not shown) [Example 30, 8-(4-chloro-2-fluorophenyl)-6-(4-ethyl-3-(1-methyl-1H-pyrazol-4-yl)piperazin-1-yl)-2,3-dimethylpyrimido[5,4-d]pyrimidin-4(3H)-one] | 75 to 110 | 6.00 to 7.00 |  |  | 
25 | Cc1nc2c(-c3ccc(Cl)cc3F)nc(N3CCN(CCF)C(c4cnn(C)c4)C3)nc2c(=O)n1C (stereo not shown) [Example 31, 8-(4-chloro-2-fluorophenyl)-6-(4-(2-fluoroethyl)-3-(1-methyl-1H-pyrazol-4-yl)piperazin-1-yl)-2,3-dimethylpyrimido[5,4-d]pyrimidin-4(3H)-one] | 75 to 110 | 7.00 to 8.00 |  |  | 
26 | Cc1nc2c(-c3ccc(Cl)cc3F)nc(N3CCN(CC(F)F)C(c4cnn(C)c4)C3)nc2c(=O)n1C (stereo not shown) [Example 32, 8-(4-chloro-2-fluorophenyl)-6-(4-(2,2-difluoroethyl)-3-(1-methyl-1H-pyrazol-4-yl)piperazin-1-yl)-2,3-dimethylpyrimido[5,4-d]pyrimidin-4(3H)-one] | < 75 | 7.00 to 8.00 |  |  | 
27 | Cc1nc2c(-c3ccc(Cl)cc3F)nc(N3CCN(CC(F)(F)F)C(c4cnn(C)c4)C3)nc2c(=O)n1C (stereo not shown) [Example 33, 8-(4-chloro-2-fluorophenyl)-2,3-dimethyl-6-(3-(1-methyl-1H-pyrazol-4-yl)-4-(2,2,2-trifluoroethyl)piperazin-1-yl)pyrimido[5,4-d]pyrimidin-4(3H)-one] | < 75 | 7.00 to 8.00 |  |  | 
28 | COCCN1CCN(c2nc(-c3ccc(Cl)cc3F)c3nc(C)n(C)c(=O)c3n2)CC1c1cnn(C)c1 (stereo not shown) [Example 34, 8-(4-chloro-2-fluorophenyl)-6-(4-(2-methoxyethyl)-3-(1-methyl-1H-pyrazol-4-yl)piperazin-1-yl)-2,3-dimethylpyrimido[5,4-d]pyrimidin-4(3H)-one] | < 75 | 6.00 to 7.00 |  |  | 
29 | Cc1ncc(C2CN(c3nc(-c4ccc(Cl)cc4F)c4nc(C)n(C)c(=O)c4n3)CCO2)cn1 (stereo not shown) [Example 35, 8-(4-chloro-2-fluorophenyl)-2,3-dimethyl-6-(2-(2-methylpyrimidin-5-yl)morpholino)pyrimido[5,4-d]pyrimidin-4 (3H)-one] |  |  |  | + (<75%) | 7.00 to 8.00
